Patent US20240180149A1, “FIRE ANT BAITS WITH ENHANCED SELECTIVITY” (The United States of America, as represented by the …, priority 2022, published 2024)
“Also recorded” adds a separate entry of the source.

Assays:
[1] = tested on: fire ants; assay: Multiple-choice field feeding bioassay on fire ants (soybean oil); type: in vivo, Solenopsis invicta; settings: ten concentrations 0.015-6.6 mg/g in soybean oil, two sets (P=0.076; P=0.703), one-way ANOVA
Text: Ant feeding bioassays—Multiple-choice and a paired two-choice bioassays were used in this study. An exemplary schematic of the multichoice bioassay field feeding setup is shown in FIG. 1A, and an exemplary schematic of the two-choice bioassay field feeding setup is shown in FIG. 1B. Soybean oil was used as a food source for all the bioassays (Great Value, purchased from Walmart in Greenville Mississippi, USA). The feeding apparatus was a filtered 1-ml pipette tip with the part 0.5 cm below the filter removed. In multiple-choice bioassays, five concentrations of the test compounds were tested with untreated soybean oil as a control, and in two-choice bioassays, the compound at certain concentration was tested against the control oil. Eighty microliter soybean oil was loaded onto each filter. After being weighed, the apparatuses with oil were placed in the field for about 2 hours. The apparatuses were then collected and frozen under −40° C. to kill all ants. The apparatuses were weighed again after all ants were removed from the apparatuses. The difference in the weight of apparatuses before and after the feeding bioassays was the oil consumption. Feeding sites were at least 10 m away from each other for fire ants, and 3 m away for little black ants and for thief ants. […]

[2] = tested on: fire ants; assay: Two-choice field feeding bioassay on fire ants (soybean oil); type: in vivo, Solenopsis invicta; settings: two-choice vs control oil
Text: (§1) Ant feeding bioassays—Multiple-choice and a paired two-choice bioassays were used in this study. An exemplary schematic of the multichoice bioassay field feeding setup is shown in FIG. 1A, and an exemplary schematic of the two-choice bioassay field feeding setup is shown in FIG. 1B. Soybean oil was used as a food source for all the bioassays (Great Value, purchased from Walmart in Greenville Mississippi, USA). The feeding apparatus was a filtered 1-ml pipette tip with the part 0.5 cm below the filter removed. In multiple-choice bioassays, five concentrations of the test compounds were tested with untreated soybean oil as a control, and in two-choice bioassays, the compound at certain concentration was tested against the control oil. Eighty microliter soybean oil was loaded onto each filter. After being weighed, the apparatuses with oil were placed in the field for about 2 hours. The apparatuses were then collected and frozen under −40° C. to kill all ants. The apparatuses were weighed again after all ants were removed from the apparatuses. The difference in the weight of apparatuses before and after the feeding bioassays was the oil consumption. Feeding sites were at least 10 m away from each other for fire ants, and 3 m away for little black ants and for thief ants. The difference in oil consumption among/between treatment and control apparatuses was used to evaluate the effect of tested compound on the feeding of fire ants. For multiple-choice bioassays, a one-way ANOVA was performed to compare the effect of different concentrations of tested compound on the percentage of oil consumption. Tukey's HSD test was used for multiple comparisons. A paired t test was used in statistical analysis for the two-choice bioassays.
Two choice bioassays—Two-choice bioassays were conducted at six concentrations of trans-solenopsis A in soybean oil, including 6.6, 3.3, 1.7, 0.8, 0.4, and 0.2 mg/g for fire ants and little black ants, and four concentrations for thief ants including 6.6, 3.3, 1.7, and 0.8 mg/g. […]

[3] = tested on: little black ants; assay: Two-choice field feeding bioassay on little black ants (soybean oil); type: in vivo, Monomorium minimum
Text: as §1
(§2) Two choice bioassays—Two-choice bioassays were conducted at six concentrations of trans-solenopsis A in soybean oil, including 6.6, 3.3, 1.7, 0.8, 0.4, and 0.2 mg/g for fire ants and little black ants, and four concentrations for thief ants including 6.6, 3.3, 1.7, and 0.8 mg/g. Feeding sites were selected using blank bait (untreated soybean oil in the feeding apparatuses). Blank baits were placed at the flagged sites for 30 minutes before the bioassay, and active feeding sites then used for the bioassays. Bioassays on fire ants were conducted in open area where most baits were hit by fire ants. Bioassays on little black ants and thief ants were conducted under the bushes, since baits under the bushes had more chances to be hit by little black ants or thief ants.

[4] = tested on: thief ants; assay: Two-choice field feeding bioassay on thief ants (soybean oil); type: in vivo, Solenopsis molesta
Text: as §1, §2

[5] = two-choice vs control oil, 1.66 mg/g
[6] = two-choice vs control oil, 1.66 mg/g, listed as Trans-solenopsisn A
[7] = two-choice vs control oil, 3.3 mg/g
[8] = two-choice vs control oil, 3.3 mg/g, listed as Trans-solenopsisn A
[9] = two-choice vs control oil, 6.6 mg/g
[10] = two-choice vs control oil, 6.6 mg/g, listed as Trans-solenopsisn A

## CCCCCCCCCCC[C@@H]1CCC[C@@H](C)N1 (relative stereo) [trans-solenopsin A]
[1]
  effect on oil consumption by fire ants: no significant effect on oil consumption
[2]; 0.27 mg/g (270 ppm), P=0.049
  feeding preference of fire ants for soybean oil: fed preferentially on oil treated with trans-solenopsin A; also recorded: feed preferentially on soybean oil containing trans-solenopsin A
[2]; 0.42 mg/g (420 ppm), P=0.0585
  feeding preference of fire ants for soybean oil: fed preferentially on oil treated with trans-solenopsin A; also recorded: feed preferentially on soybean oil containing trans-solenopsin A
[2]; 6.6 mg/g (6600 ppm), P=0.39
  feeding preference of fire ants for soybean oil: did not significantly affect the feeding preference
[3]; two-choice vs control oil, 0.42 mg/g, P=0.07
  inhibition of feeding by little black ants on soybean oil: very close to be statistically significant
[3]; two-choice vs control oil, 0.83 mg/g
  feeding by little black ants on soybean oil: significantly inhibited the feeding
[3]; two-choice vs control oil, 0.83 mg/g, listed as Trans-solenopsisn A
  feeding by little black ants on soybean oil: significantly inhibited feeding
[3]; [5]
  feeding by little black ants on soybean oil: significantly inhibited the feeding
[3]; [6]
  feeding by little black ants on soybean oil: significantly inhibited feeding
[3]; [7]
  feeding by little black ants on soybean oil: significantly inhibited the feeding
[3]; [8]
  feeding by little black ants on soybean oil: significantly inhibited feeding
[3]; [9]
  feeding by little black ants on soybean oil: almost completely shut down; also recorded: significantly inhibited the feeding
[3]; [10]
  feeding by little black ants on soybean oil: significantly inhibited feeding; also recorded: almost completely inhibited
[3]; two-choice, paired t test, P<=0.045
  concentrations that significantly inhibited feeding by little black ants: > 0.42 mg/g
[3]; two-choice, 3.3 mg/g
  share of oil consumed by little black ants that was trans-solenopsin A treated: 9.63%
[4]; two-choice vs control oil, 0.80 mg/g, P=0.14
  inhibition of feeding by thief ants on soybean oil: not statistically significant
[4]; [5]
  feeding by thief ants on soybean oil: significantly inhibited the feeding
[4]; [6]
  feeding by thief ants on soybean oil: feeding inhibition was significant
[4]; [7]
  feeding by thief ants on soybean oil: significantly inhibited the feeding
[4]; [8]
  feeding by thief ants on soybean oil: feeding inhibition was significant
[4]; [9]
  feeding by thief ants on soybean oil: almost completely stopped; also recorded: completely shut down; also recorded: significantly inhibited the feeding
[4]; [10]
  feeding by thief ants on soybean oil: feeding inhibition was significant; also recorded: almost completely inhibited
[4]; two-choice, concentration not restated (previous sentence: 3.3 mg/g)
  share of oil consumed by thief ants that was trans-solenopsin A-treated: 1.52%
